The values that follow are results of earlier work, collected in patent publication US6383513B1, “Compositions comprising cannabinoids” (West Pharmaceutical Services Drug Delivery & Clinical …, priority 1997, dated 2002).

The structures appear in SMILES notation.

Assay in series [1]: not given
The source holds these as a separate data set.

On to `CCCCCc1cc(O)c2c(c1)OC(C)(C)[C@@H]1CCC(C)=C[C@@H]21` [Dronabinol, delta-9-tetrahydrocannabinol], for which the “appetite stimulant effect may continue” value (after administration) is at least 24 h. Also, under “after oral administration”, the “duration of action for psychoactive effects” value is 4 to 6 h, the onset of action was 0.5 to 1 h and the peak effect was 2 to 4 h. The absorbed in series [1] (after single oral doses) is 90-95%. Further, the “administered dose that reaches the systemic circulation” value in series [1] (oral, first pass hepatic metabolism and high lipid solubility) was 10-20%.
